The term EC50 denotes the concentration giving half of the maximal effect.

Molecules are shown by their SMILES.

In this assay the target is STING (Homo sapiens, UniProt Q86WV6, G230A/H232R/R293Q/R71H). The experiment in a line: STING reporter assay in THP1-Dual KO-IFNAR2 cells (2′3′cGAMP stimulation, luciferase reporter). Type of assay: cell-based. Conditions: 15 μM 2′3′cGAMP stimulation, 24 h, read-out: Pharmaron, THP1_IFNAR2 STING 24 h Luci Normalized: GeoMean EC50. The essentials: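 EC50 from secreted luciferase (QUANTI-Luc Plus luminescence of supernatant) after 24 h at 37 °C, 5% CO2. Cells: THP1-Dual KO-IFNAR2, treated with compound (0.0017-100 μM final) plus lipofected 2′3′cGAMP at 15 μM final.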
Chain of STING (Q86WV6 whole entry R71H/G230A/H232R/R293Q): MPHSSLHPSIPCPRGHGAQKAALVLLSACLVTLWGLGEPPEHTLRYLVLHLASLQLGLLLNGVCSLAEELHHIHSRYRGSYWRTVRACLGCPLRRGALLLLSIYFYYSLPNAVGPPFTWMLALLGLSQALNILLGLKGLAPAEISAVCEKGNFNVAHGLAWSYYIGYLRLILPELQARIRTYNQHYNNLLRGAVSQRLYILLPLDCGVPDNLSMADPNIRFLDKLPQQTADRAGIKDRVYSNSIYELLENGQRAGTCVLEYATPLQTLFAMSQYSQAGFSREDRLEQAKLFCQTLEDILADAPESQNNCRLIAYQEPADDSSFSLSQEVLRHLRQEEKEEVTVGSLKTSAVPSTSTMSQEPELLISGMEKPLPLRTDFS
In general terms: A reporter such as luciferase makes a cellular process visible.

For `CC1(C(=O)Nc2c[nH]c3ccc(O[C@H]4C[C@H](c5ccc(C(F)(F)F)cc5)C4)cc23)CCOCC1` [Compound 488, 4-methyl-N-{5-[(1R,3R)-3-[4-(trifluoromethyl)phenyl]cyclobutoxy]-1H-indol-3-yl}oxane-4-carboxamide], the EC50 is 40 to 200 nM. With `O=C(Nc1c[nH]c2ccc(O[C@H]3C[C@H](c4ccc(C(F)(F)F)cc4)C3)cc12)C1CC1(F)Cl` (stereo partly drawn) [Compound 571, 2-chloro-2-fluoro-N-(5-(trans-3-(4-(trifluoromethyl)phenyl)cyclobutoxy)-1H-indol-3-yl)cyclopropane-1-carboxamide], the EC50 was in the range of 200 to 1000 nM. The same measure for `C[C@H]1C[C@@H]1C(=O)Nc1c[nH]c2ccc(CCOc3ccc(C(F)(F)F)cc3)cc12` [Compound 394, (1S,2S)-2-methyl-N-(5-(2-(4-(trifluoromethyl)phenoxy)ethyl)-1H-indol-3-yl)cyclopropane-1-carboxamide]: 40 to 200 nM.

In the case of `C[C@]1(C(=O)Nc2c[nH]c3ccc(OCC[C@@H]4C[C@@H]5CN(CC(F)(F)F)C[C@@H]5C4)cc23)CC[C@H](O)CC1` [Compound 504, (1r,4R)-4-hydroxy-1-methyl-N-(5-(2-((3aR,5r,6aS)-2-(2,2,2-trifluoroethyl)octahydrocyclopenta[c]pyrrol-5-yl)ethoxy)-1H-indol-3-yl)cyclohexane-1-carboxamide], the 50% effective concentration (EC50) fell in the range of 200 to 1000 nM. With `CC(=O)Nc1c[nH]c2ccc(CCOc3ccc(C(F)(F)F)cn3)cc12` [Compound 215, N-(5-(2-((5-(trifluoromethyl)pyridin-2-yl)oxy)ethyl)-1H-indol-3-yl)acetamide], the EC50 was in the range of 200 to 1000 nM. Then `CO[C@H]1C[C@H](C(=O)Nc2c[nH]c3ccc(OCc4ccc(C(F)(F)F)cc4)cc23)C1` [Compound 300, trans-3-methoxy-N-(5-((4-(trifluoromethyl)benzyl)oxy)-1H-indol-3-yl)cyclobutane-1-carboxamide], with 40 to 200 nM. The same measure for `COC1CC(C(=O)Nc2c[nH]c3ccc(O[C@H]4C[C@@H](c5ccc(C(F)(F)F)cc5)C4)cc23)C1` (stereo partly drawn) [Compound 159, 3-methoxy-N-{5-[(1S,3S)-3-[4-(trifluoromethyl)phenyl]cyclobutoxy]-1H-indol-3-yl}cyclobutane-1-carboxamide]: 40 to 200 nM. The same measure for `CC1(C(=O)Nc2c[nH]c3ccc(CCOc4ccc(C(F)(F)F)cc4)cc23)CCOCC1` [Compound 594, 4-methyl-N-(5-(2-(4-(trifluoromethyl)phenoxy)ethyl)-1H-indol-3-yl)tetrahydro-2H-pyran-4-carboxamide]: 200 to 1000 nM; for `CC(=O)Nc1c[nH]c2ccc(COCc3cccc(C(F)(F)F)c3)cc12` [Compound 106, N-(5-(((3-(trifluoromethyl)benzyl)oxy)methyl)-1H-indol-3-yl)acetamide]: 200 to 1000 nM; for `CC(C)(C)CC(=O)Nc1c[nH]c2ccc(OCCc3ccc(C(F)(F)F)cc3)cc12` [Compound 202, 3,3-dimethyl-N-(5-(4-(trifluoromethyl)phenethoxy)-1H-indol-3-yl)butanamide]: 40 to 200 nM. Turning to `C[C@H]1C[C@@H](C(=O)Nc2c[nH]c3ccc(OCC[C@@H]4C[C@@H]5CN(CC(F)(F)F)C[C@@H]5C4)cc23)C1` [Compound 150, (1R,3S)—N-(5-{2-[(3aR,5S,6aS)-2-(2,2,2-trifluoroethyl)-octahydrocyclopenta[c]pyrrol-5-yl]ethoxy}-1H-indol-3-yl)-3-methylcyclobutane-1-carboxamide], the EC50 fell in the range of 200 to 1000 nM. Then `CO[C@H]1C[C@H](C(=O)Nc2c[nH]c3ccc(OCC[C@@H]4C[C@@H]5CN(CC(F)(F)F)C[C@@H]5C4)cc23)C1` [Compound 296, trans-3-methoxy-N-(5-(2-((3aR,5r,6aS)-2-(2,2,2-trifluoroethyl)octahydrocyclopenta[c]pyrrol-5-yl)ethoxy)-1H-indol-3-yl)cyclobutane-1-carboxamide], with 40 to 200 nM; and `COCCOCC(=O)Nc1c[nH]c2ccc(CCOc3ccc(C(F)(F)F)cc3)cc12` [Compound 406, 2-(2-methoxyethoxy)-N-(5-(2-(4-(trifluoromethyl)phenoxy)ethyl)-1H-indol-3-yl)acetamide], with 200 to 1000 nM; and `CC(=O)Nc1c[nH]c2ccc(OCC3(c4ccc(C(F)(F)F)cc4)CC3)cc12` [Compound 289, N-(5-((1-(4-(trifluoromethyl)phenyl)cyclopropyl)methoxy)-1H-indol-3-yl)acetamide], with 1000 to 5000 nM. Consider `N#CC1(C(=O)Nc2c[nH]c3ccc(OCc4ccc(C(F)(F)F)cc4)cc23)CC1` [Compound 586, 1-cyano-N-(5-((4-(trifluoromethyl)benzyl)oxy)-1H-indol-3-yl)cyclopropane-1-carboxamide], for which the EC50 fell in the range of 200 to 1000 nM.

For the molecule `CC1(C(=O)Nc2c[nH]c3ccc(O[C@H]4C[C@@H](c5ccc(C(F)(F)F)cc5)C4)cc23)CCOC1` (stereo partly drawn) [Compound 357, 3-methyl-N-(5-(cis-3-(4-(trifluoromethyl)phenyl)cyclobutoxy)-1H-indol-3-yl)tetrahydrofuran-3-carboxamide], the EC50 lay in the range of 200 to 1000 nM. Then `CC1(C(=O)Nc2c[nH]c3ccc(OCCc4ccc(C(F)(F)F)cc4)cc23)CCCO1` (stereo not drawn) [Compound 191, 2-methyl-N-(5-(4-(trifluoromethyl)phenethoxy)-1H-indol-3-yl)tetrahydrofuran-2-carboxamide], with 200 to 1000 nM.

As to `CC(=O)Nc1c[nH]c2ccc(CCOc3cc(Cl)nc(C(F)(F)F)c3)cc12` [Compound 559, N-(5-(2-((2-chloro-6-(trifluoromethyl)pyridin-4-yl)oxy)ethyl)-1H-indol-3-yl)acetamide], the EC50 lay in the range of 200 to 1000 nM. Then `O=C(Nc1c[nH]c2ccc(CCOc3ccc(C(F)(F)F)cc3)cc12)C1CC(Cl)C1` (stereo not drawn) [Compound 177, 3-chloro-N-(5-(2-(4-(trifluoromethyl)phenoxy)ethyl)-1H-indol-3-yl)cyclobutane-1-carboxamide], with 200 to 1000 nM; and `O=C(Nc1c[nH]c2ccc(CCOc3ccc(C(F)(F)F)cc3)cc12)C1CC1(F)F` (stereo not drawn) [Compound 595, 2,2-difluoro-N-(5-(2-(4-(trifluoromethyl)phenoxy)ethyl)-1H-indol-3-yl)cyclopropane-1-carboxamide], with 40 to 200 nM. For the molecule `O=C(Nc1c[nH]c2ccc(O[C@H]3C[C@H](c4ccc(C(F)(F)F)nc4)C3)cc12)[C@H]1C[C@@H](CO)C1` [Compound 552, cis-3-(hydroxymethyl)-N-(5-(trans-3-(6-(trifluoromethyl)pyridin-3-yl)cyclobutoxy)-1H-indol-3-yl)cyclobutane-1-carboxamide], the 50% effective concentration (EC50) was 200 to 1000 nM. The same measure for `O=C(Nc1c[nH]c2ccc(O[C@H]3C[C@H](c4ccc(C(F)(F)F)cc4)C3)cc12)C1CCOCC1` [Compound 493, N-{5-[(1R,3R)-3-[4-(trifluoromethyl)phenyl]cyclobutoxy]-1H-indol-3-yl}oxane-4-carboxamide]: 40 to 200 nM; for `O=C(Nc1c[nH]c2ccc(O[C@H]3C[C@@H](c4ccc(C(F)(F)F)cc4)C3)cc12)C1CC(O)C1` (stereo partly drawn) [Compound 338, 3-hydroxy-N-(5-(cis-3-(4-(trifluoromethyl)phenyl)cyclobutoxy)-1H-indol-3-yl)cyclobutane-1-carboxamide]: 200 to 1000 nM; for `CC(=O)Nc1c[nH]c2ccc(CC(N)Cc3ccc(C(F)(F)F)cc3)cc12` (stereo not drawn) [Compound 517, N-(5-(2-amino-3-(4-(trifluoromethyl)phenyl)propyl)-1H-indol-3-yl)acetamide]: 5000 to 100000 nM.

Source of the values: patent US12503436B2, “Compounds and compositions for treating conditions associated with STING activity” (NOVARTIS PHARMA AG, priority 2021, dated 2025).
